From US20100130599A1 (priority 2008, published 2010)
Where two headings read alike, the source gives them in different places.

What was measured:
CYP2C9*8 [1] = target: T1, CYP2C9*8 (Homo sapiens, UniProt P11712, R150H); conditions: cited from earlier work
CYP2C9*8 [2] = target: T1, CYP2C9*8; parameters: host or cells: human subjects carrying the CYP2C9*8 allele (in vivo phenotyping); conditions: CYP2C9*8 allele, cited from earlier work
[3] = Source text: A total of 226 African American patients having demographic and clinical parameters as depicted in Table 1 were studied.
Patients were enrolled from the pharmacist-managed anticoagulation clinics at the University of Illinois Medical Center at Chicago and at the University of Florida in Gainesville. […] Aquilante, C. […] Pharmacogenomics 8, 1535-44 (2007). Patients with a history of liver dysfunction or serum transaminase levels greater than 3 times the upper limit of normal were excluded.
After obtaining written informed consent and authorization for medical record review, a buccal cell sample was collected for genetic analysis, as previously described. Andrisin, T. E., Humma, L. M. & Johnson, J. A. Collection of genomic DNA by the noninvasive mouthwash method for use in pharmacogenetic studies. Pharmacotherapy 22, 954-60 (2002). Demographic, clinical, and social history were assessed through patient interview and review of the medical record. This study was approved by the Institutional Review Board at each institution.
Genomic DNA was isolated from buccal cells using a commercially available kit (PureGene,® Qiagen, Valencia, Calif.) according to kit manufacturer instructions. The CYP2C9 R144C (*2), […] (*3) and D360E (*5) alleles and VKORC1 −1639G>A genotype were determined as previously described. Aquilante, C. […] Clin Pharmacol Ther 79, 291-302 (2006); Hruska, M. W., Frye, R. F. & Langaee, T. Y. Pyrosequencing method for genotyping cytochrome P450 CYP2C8 and CYP2C9 enzymes. Clin Chem 50, 2392-5 (2004). The VKORC1 −4451A>C, 497G>T, and 3730A>G genotypes, and APOE 112C>T and 158C>T genotypes were determined by PCR and pyrosequencing. PCR and sequencing primers used were per Table 6.
Prior to determination of additional genotypes, genomic DNA was amplified by the whole genome amplification (WGA) technique, using the REPLI-g midi kit (Qiagen). Dean, F. B. et al. Comprehensive human genome amplification using multiple displacement amplification. Proc Natl Acad Sci USA 99, 5261-6 (2002) The fidelity of amplification was verified by comparing genotypes for CYP2C9*2, *3, *5 and VKORC1 −1639G>A determined before and after WGA. […] Reed, M. R. & Coty, W. A. in Microarrays: Preparation, Detection Methods, Data Analysis, and Applications (eds. Dill, K., Liu, R. & Grodzinski, P.) 247-60 (Springer-Verlag/Kluwer, 2009). The CYP2C9*8 genotype was determined by bi-directional DNA sequencing at Agencourt Biosciences after uniplex PCR amplification performed by Osmetech Molecular Diagnostics.
Data are expressed as numbers (percentages), mean±SD, or median (inter-quartile range). Height and weight were used to calculate body surface area (BSA). […] Hardy Weinberg Equilibrium (HWE) assumption was tested by χ^2 analysis. […] Dickmann, L. J. et al. Identification and functional characterization of a new CYP2C9 variant (CYP2C9*5) expressed among African Americans. Mol Pharmacol 60, 382-7 (2001); Allabi, A. C., Gala, J. L. & Horsmans, Y. CYP2C9, CYP2C19, ABCB1 (MDR1) genetic polymorphisms and phenytoin metabolism in a Black Beninese population. Pharmacogenet Genomics 15, 779-86 (2005); Blaisdell, J. et al. Discovery of new potentially defective alleles of human CYP2C9. Pharmacogenetics 14, 527-37 (2004) Carriers of a variant CYP2C9*8 allele were initially analyzed separately because of uncertainty regarding the functional effects of this allele.

SMILES: CCCCc1nc(Cl)c(CO)n1Cc1ccc(-c2ccccc2-c2nnn[nH]2)cc1 [Losartran]
- effect of *8 on in vivo metabolism (CYP2C9*8 [1]): little effect

SMILES: O=C1NC(=O)C(c2ccccc2)(c2ccccc2)N1 [phenytoin]
- urinary excretion of phenytoin metabolite (CYP2C9*8 [2]; clinical study): reduced urinary excretion
- effect of *8 on in vivo metabolism (CYP2C9*8 [2]; in vivo): decreases in vivo metabolism

SMILES: CC(=O)CC(c1ccccc1)c1c(O)c2ccccc2oc1=O (stereo not drawn) [warfarin]
- Median (IQR) dose ([3]; APOE ε2/ε2, n=4): 35.5 (34.3-38.9) mg/week
- Median (IQR) dose ([3]; APOE ε2/ε3, n=36): 40.0 (30.0-49.7) mg/week
- Median (IQR) dose ([3]; APOE ε2/ε4, n=6): 61.3 (38.4-70.0) mg/week
- Median (IQR) dose ([3]; APOE ε3/ε3, n=102): 40.0 (32.1-52.5) mg/week
- Median (IQR) dose ([3]; APOE ε3/ε4, n=60): 43.8 (32.4-56.3) mg/week
- Median (IQR) dose ([3]; APOE ε4/ε4, n=9): 45.0 (40.0-52.5) mg/week
- warfarin dose, median (IQR) ([3]; APOE ε4 carriers): 45.0 (33.1-56.3) mg/week
- warfarin dose, median (IQR) ([3]; APOE ε4 homozygotes): 45.0 (40.0-52.5) mg/week
- Median (IQR) dose ([3]; CYP2C9 *1/*1, n=171): 42.5 (35.0-56.3) mg/week
- Median (IQR) dose ([3]; CYP2C9 *1/*8 or *8/*8, n=24): 34.4 (29.5-47.3) mg/week
- Median (IQR) dose ([3]; CYP2C9 *2, *3, *5, *6, or *11 allele, n=28): 33.1 (28.0-40.0) mg/week
- Median (IQR) dose ([3]; CYP4F2 V433M M/M, n=3): 37.5 (28.8-56.3) mg/week
- Median (IQR) dose ([3]; CYP4F2 V433M V/M, n=26): 40.0 (35.3-51.9) mg/week
- Median (IQR) dose ([3]; CYP4F2 V433M V/V, n=194): 41.6 (32.5-55.0) mg/week
- Median (IQR) dose ([3]; VKORC1 497T > G GG, n=1): 36.0 — mg/week
- Median (IQR) dose ([3]; VKORC1 497T > G TG, n=16): 35.0 (27.5-36.3) mg/week
- Median (IQR) dose ([3]; VKORC1 497T > G TT, n=208): 42.0 (32.5-56.1) mg/week
- Median (IQR) dose ([3]; VKORC1 −1639G > A GA, n=33): 35.0 (27.5-42.5) mg/week
- Median (IQR) dose ([3]; VKORC1 −4451C > A AA, n=3): 28.0 (26.5-30.3) mg/week
- Median (IQR) dose ([3]; VKORC1 −4451C > A CA, n=22): 42.5 (31.0-55.6) mg/week
- Median (IQR) dose ([3]; VKORC1 −4451C > A CC, n=200): 40.0 (32.5-55.0) mg/week
- Median (IQR) dose ([3]; VKORC1.3730A > G AA, n=45): 42.0 (32.5-55.0) mg/week
- Median (IQR) dose ([3]; VKORC1.3730A > G GA, n=121): 42.0 (34.0-56.3) mg/week
- Median (IQR) dose ([3]; VKORC1.3730A > G GG, n=60): 37.5 (30.0-47.5) mg/week
- Average INR ([3]; all patients (n = 226) on stable warfarin dose, mean ± SD): 2.5 ± 0.3
- Therapeutic warfarin dose ([3]; all patients (n = 226), median (IQR)): 40.0 (32.5-55.0) mg/week
- warfarin dose, median (IQR) ([3]; individuals with a CYP2C9*5, *6, *8, or *11 allele, n=40): 35.0 mg/wk
- warfarin dose, median (IQR) ([3]; non-c4 homozygotes): 40.0 (32.0-55.0) mg/week
- warfarin dose, median (IQR) ([3]; non-ε4 carriers): 40.0 (32.0-52.5) mg/week
- median daily warfarin dose ([3]; study population, median (range)): 5.7 mg
